The test system of test [1] is post-Amadori AGE formation, RNase Amadori intermediate. The test can be described thus: Interrupted (post-Amadori) ribose glycation assay, RNase. It counts as biochemical, bovine. The settings on record: RNase. Here is the method:
(§1) ELISA detection of AGE products. The general method of Engvall (1981, Methods Enzymol. 70:419-439) was used to perform the ELISA. Typically, glycated protein samples were diluted to approximately 1.5 ug/ml in 0.1 M sodium carbonate buffer of pH 9.5 to 9.7. The protein was coated overnight at room temperature onto 96-well polystyrene plates by pippetting 200 ul of the protein solution in each well (0.3 ug/well). After coating, the protein was washed from the wells with a saline solution containing 0.05% Tween-20. The wells were then blocked with 200 ul of 1% casein in carbonate buffer for 2 h at 37° C. followed by washing. Rabbit anti-AGE antibodies were diluted at a titer of about 1:350 in incubation buffer, and incubated for 1 h at 37° C., followed by washing. In order to minimize background readings, antibodies R479 used to detect glycated RNase were raised against glycated BSA, and antibodies R618 used to detect glycated BSA and glycated Hb were raised against glycated RNase. An alkaline phosphatase-conjugated antibody to rabbit IgG was then added as the secondary antibody at a titer of 1:2000 or 1:2500 (depending on lot) and incubated for 1 h at 37° C., followed by washing. The p-nitrophenylphosphate substrate solution was then added (200 ul/well) to the plates, with the absorbance of the released p-nitrophenolate being monitored at 410 nm with a Dynatech MR 4000 microplate reader.
Glycation Modifications Modification with ribose or glucose was generally done at 37° C. in 0.4 M phosphate buffer of pH 7.5 containing 0.02% sodium azide. The high buffer concentration was always used with 0.5 M ribose modifications. The solutions were kept in capped tubes and opened only to remove timed aliquots that were immediately frozen for later carrying out the various analyses. “Interrupted glycation” experiments were carried out by first incubating protein with the ribose at 37° C. for 8 or 24 h, followed by immediate and extensive dialysis against frequent cold buffer changes at 4° C. The samples were then reincubated by quickly warming to 37° C. in the absence of external ribose. Aliquots were taken and frozen at various intervals for later analysis. Due to the low molecular weight of RNase, protein concentrations were remeasured after dialysis even when low molecular weight cut-off dialysis tubing was used. An alternative procedure was also devised (see below) in which interruption was achieved by simple 100-fold dilution from reaction mixtures containing 0.5 M ribose. Protein concentrations were estimated from UV spectra. The difference in molar extinction between the peak (278 nm) and trough (250 nm) was used for RNase concentration determinations in order to compensate for the general increase in UV absorbance that accompanies glycation. Time-dependent UV-difference spectral studies were carried out to characterize the glycation contributions of the UV spectrum. […]
Glycation was first carried out by incubating protein (10 mg/ml) with 0.5 M ribose at 37° C. in 0.4 M phosphate buffer at pH 7.5 containing 0.2% sodium azide for 24 h in the absence of inhibitors. Glycation was then interrupted to remove excess and reversibly bound (Schiff base) sugar by extensive dialysis against frequent cold buffer changes at 4° C.

For test [2], the system named is post-Amadori AGE formation, BSA Amadori intermediate. Put plainly: Interrupted (post-Amadori) ribose glycation assay, BSA. The format is biochemical, bovine. How it is done: as §1
Glycation was first carried out by incubating protein (10 mg/ml) with 0.5 M ribose at 37° C. in 0.4 M phosphate buffer at pH 7.5 containing 0.2% sodium azide for 24 h in the absence of inhibitors. Glycation was then interrupted to remove excess and reversibly bound (Schiff base) sugar by extensive dialysis against frequent cold buffer changes at 4° C. The glycated intermediate samples containing maximal amount of Amadori product and little AGE (depending on protein) were then quickly warmed to 37° C. without re-addition of ribose. This initiated conversion of Amadori intermediates to AGE products in the absence or presence of various concentrations (typically 3, 15 and 50 mM) of prospective inhibitors. Aliquots were taken and frozen at various intervals for later analysis. The solutions were kept in capped tubes and opened only to remove timed aliquots that were immediately frozen for later carrying out the various analyses.

The mark [3] stands for this setting: 24 h in 0.5 M ribose, then free ribose removed, 37° C.

Structures are written as SMILES.

The text below walks through data of patent publication US6716858B1, “Methods for inhibiting diabetic complications” (Kansas University Medical Center, priority 1995, dated 2004).

Regarding `N=C(N)NN` [aminoguanidine, reference compound], the “inhibition of post-Amadori AGE formation” value in test [1] (setting [3]) is recorded as “modest effects on blocking the formation of antigenic AGEs in RNase”; in test [1] (50 mM inhibitor) it was “less than 15%”; in test [2] (50 mM inhibitor), “about 20%”; in test [2] (setting [3]), “Comparable results”.
In the case of `Cc1ncc(CO)c(CN)c1O` [pyridoxamine], the “inhibition of post-Amadori AGE formation” value in test [1] (setting [3]) was “nearly complete inhibition of AGE formation with RNase at 15 mM and 50 mM”.
For the compound `Cc1ncc(C[n+]2csc(CCO[P@](=O)(O)OP(=O)(O)O)c2C)c(N)n1` [thiamine pyrophosphate], the “inhibition of post-Amadori AGE formation” value in test [1] (setting [3]) and in test [2] (setting [3]) was “inhibited AGE formation more effectively than the other B1 derivatives” each time.
